Read-outs that look alike come from different tables or passages of the source.
What was measured:
Format in all cases: in vivo
[1] = tested on: Diabrotica balteata (Corn Root Worm); test: Activity against Diabrotica balteata (corn root worm), maize sprouts sprayed; conditions: 96 h, read-out: effect in at least one of the two categories (mortality or growth inhibition); for percent effect (mortality or growth inhibition) at 200 ppm: application rate 200 ppm, L2 larvae, 4 days after infestation
Procedure: Example B1: Activity Against Diabrotica balteata (Corn Root Worm)
Maize sprouts placed onto an agar layer in 24-well microtiter plates were treated with aqueous test solutions prepared from 10,000 ppm DMSO stock solutions by spraying. After drying, the plates were infested with L2 larvae (6 to 10 per well). The samples were assessed for mortality and growth inhibition in comparison to untreated samples 4 days after infestation.

[2] = tested on: Euschistus heros (Neotropical Brown Stink Bug); test: Activity against Euschistus heros (neotropical brown stink bug), soybean leaves sprayed; conditions: 120 h, read-out: effect in at least one of the two categories (mortality or growth inhibition); for percent effect (mortality or growth inhibition) at 200 ppm: application rate 200 ppm, N2 nymphs, 5 days after infestation
Procedure: Example B2: Activity Against Euschistus heros (Neotropical Brown Stink Bug)
Soybean leaves on agar in 24-well microtiter plates were sprayed with aqueous test solutions prepared from 10,000 ppm DMSO stock solutions. After drying the leaves were infested with N2 nymphs. The samples were assessed for mortality and growth inhibition in comparison to untreated samples 5 days after infestation.

[3] = tested on: Plutella xylostella (Diamond Back Moth); test: Activity against Plutella xylostella (diamond back moth), artificial diet; conditions: 192 h, read-out: effect in at least one of the two categories (mortality or growth inhibition); for percent effect (mortality or growth inhibition) at 200 ppm: application rate 200 ppm, eggs, 8 days after infestation
Procedure: Example B3: Activity Against Plutella xylostella (Diamond Back Moth)
24-well microtiter plates with artificial diet were treated with aqueous test solutions prepared from 10,000 ppm DMSO stock solutions by pipetting. After drying, Plutella eggs were pipetted through a plastic stencil onto a gel blotting paper and the plate was closed with it. The samples were assessed for mortality and growth inhibition in comparison to untreated samples 8 days after infestation.

[4] = tested on: Myzus persicae (Green Peach Aphid); test: Activity against Myzus persicae (green peach aphid), feeding/contact activity; conditions: 144 h
Procedure: Example B4: Activity Against Myzus persicae (Green Peach Aphid) Feeding/Contact Activity
Sunflower leaf discs were placed onto agar in a 24-well microtiter plate and sprayed with aqueous test solutions prepared from 10,000 ppm DMSO stock solutions. After drying, the leaf discs were infested with an aphid population of mixed ages. The samples were assessed for mortality 6 days after infestation.

[5] = tested on: Spodoptera littoralis (Egyptian Cotton Leaf Worm); test: Activity against Spodoptera littoralis (Egyptian cotton leaf worm), cotton leaf discs; conditions: foliar, 72 h, read-out: control (mortality, anti-feedant effect or growth inhibition)
Procedure: Example B5: Activity Against Spodoptera littoralis (Egyptian Cotton Leaf Worm)
Cotton leaf discs were placed onto agar in 24-well microtiter plates and sprayed with aqueous test solutions prepared from 10,000 ppm DMSO stock solutions. After drying the leaf discs were infested with five L1 larvae. The samples were assessed for mortality, anti-feeding effect, and growth inhibition in comparison to untreated samples 3 days after infestation. Control of Spodoptera littoralis by a test sample is given when at least one of the categories mortality, anti-feedant effect, and growth inhibition is higher than the untreated sample.

[6] = application rate 200 ppm, feeding/contact, mixed ages, 6 days after infestation, read-out: mortality
[7] = application rate 200 ppm, L1 larvae, 3 days after infestation

CCS(=O)(=O)c1cc(OC(C)(C)C#N)cnc1-c1ncc2c(OCC(F)(F)C(F)(F)F)cccn12 [Compound P47, 2-[[5-ethylsulfonyl-6-[8-(2,2,3,3,3-penta-fluoropropoxy)imidazo [1,5-a]pyridin-3-yl]-3-pyridyl]oxy]-2-methyl-propanenitrile]
≥ 80%: percent effect (mortality or growth inhibition) at 200 ppm [1] | percent effect (mortality or growth inhibition) at 200 ppm [2] | percent effect (mortality or growth inhibition) at 200 ppm [3] | mortality at 200 ppm [4, 6]

CCSc1cc(OC(C)(C)C#N)cnc1-c1ncc2c(OCC(F)(F)C(F)(F)F)nccn12 [Compound P50, 2-[[5-ethylsulfanyl-6-[8-(2,2,3,3,3-penta-fluoropropoxy)imidazo [1,5-a]pyrazin-3-yl]-3-pyridyl]oxy]-2-methyl-propanenitrile]
≥ 80%: percent effect (mortality or growth inhibition) at 200 ppm [1] | percent effect (mortality or growth inhibition) at 200 ppm [2] | percent effect (mortality or growth inhibition) at 200 ppm [3] | percent control (mortality, anti-feedant effect or growth inhibition) at 200 ppm [5, 7]

CCS(=O)(=O)c1cccnc1-c1ncc2c(OCC(F)(F)C(F)(F)F)nccn12 [Compound P8, 3-(3-ethylsulfonyl-2-pyridyl)-8-(2,2,3,3,3-pentafluoropropoxy)imi-dazo[1,5-a]pyrazine]
≥ 80%: percent control (mortality or growth inhibition) at 200 ppm [1] | percent control (mortality or growth inhibition) at 200 ppm [2] | percent control (mortality or growth inhibition) at 200 ppm [3] | mortality at 200 ppm [4] | percent control (mortality, anti-feedant effect or growth inhibition) at 200 ppm [5]

CCS(=O)(=O)c1cc(Oc2ccccn2)cnc1-c1ncc2c(OCC(F)(F)C(F)(F)F)nccn12 [Compound P19, 3-[3-ethylsulfonyl-5-(2-pyridyloxy)-2-pyridyl]-8-(2,2,3,3,3-penta-fluoropropoxy)imidazo [1,5-a]pyrazine]
≥ 80%: percent effect (mortality or growth inhibition) at 200 ppm [1] | percent effect (mortality or growth inhibition) at 200 ppm [2] | percent effect (mortality or growth inhibition) at 200 ppm [3] | mortality at 200 ppm [4, 6] | percent control (mortality, anti-feedant effect or growth inhibition) at 200 ppm [5, 7]

CCS(=O)(=O)c1cc(C2(C#N)CC2)cnc1-c1ncc2c(OCC(F)(F)C(F)(F)F)cccn12 [Compound P35, 1-[5-ethylsulfonyl-6-[8-(2,2,3,3,3-penta-fluoropropoxy)imidazo [1,5-a]pyridin-3-yl]-3-pyridyl]cyclopropane-carbonitrile]
≥ 80%: percent effect (mortality or growth inhibition) at 200 ppm [1] | percent effect (mortality or growth inhibition) at 200 ppm [2] | percent effect (mortality or growth inhibition) at 200 ppm [3] | percent control (mortality, anti-feedant effect or growth inhibition) at 200 ppm [5, 7]

CCS(=O)(=O)c1cc(C2CC2)cnc1-c1ncc2c(OCC(F)(F)C(F)(F)F)nccn12 [Compound P21, 3-(5-cyclopropyl-3-ethylsulfonyl-2-pyridyl)-8-(2,2,3,3,3-penta-fluoropropoxy)imidazo [1,5-a]pyrazine]
≥ 80%: percent effect (mortality or growth inhibition) at 200 ppm [1] | percent effect (mortality or growth inhibition) at 200 ppm [2] | percent effect (mortality or growth inhibition) at 200 ppm [3] | mortality at 200 ppm [4, 6] | percent control (mortality, anti-feedant effect or growth inhibition) at 200 ppm [5, 7]

CCS(=O)(=O)c1cc(N=S(C)(C)=O)cnc1-c1ncc2c(OCC(F)(F)C(F)(F)F)cccn12 [Compound P45, [5-ethylsulfonyl-6-[8-(2,2,3,3,3-penta-fluoropropoxy)imidazo [1,5-a]pyridin-3-yl]-3-pyridyl]imino-dimethyl-oxo-λ^6-sulfane]
≥ 80%: percent effect (mortality or growth inhibition) at 200 ppm [2] | percent effect (mortality or growth inhibition) at 200 ppm [3] | mortality at 200 ppm [4, 6]

CCS(=O)(=O)c1cc(Oc2ccccn2)cnc1-c1ncc2c(OCC(F)(F)C(F)(F)F)cccn12 [Compound P36, 3-[3-ethylsulfonyl-5-(2-pyridyloxy)-2-pyridyl]-8-(2,2,3,3,3-penta-fluoropropoxy)imidazo [1,5-a]pyridine]
≥ 80%: percent effect (mortality or growth inhibition) at 200 ppm [1] | percent effect (mortality or growth inhibition) at 200 ppm [2] | percent effect (mortality or growth inhibition) at 200 ppm [3] | mortality at 200 ppm [4, 6]

CCS(=O)(=O)c1ccc(NC)nc1-c1ncc2c(OCC(F)(F)C(F)(F)F)nccn12 [Compound P10, 5-ethylsulfonyl-N-methyl-6-[8-(2,2,3,3,3-penta-fluoropropoxy)imidazo [1,5-a]pyrazin-3-yl]pyri-din-2-amine]
≥ 80%: percent effect (mortality or growth inhibition) at 200 ppm [1] | percent effect (mortality or growth inhibition) at 200 ppm [2] | percent effect (mortality or growth inhibition) at 200 ppm [3] | mortality at 200 ppm [4, 6] | percent control (mortality, anti-feedant effect or growth inhibition) at 200 ppm [5, 7]

CCS(=O)(=O)c1cc(N(C)C(C)=O)cnc1-c1ncc2c(OCC(F)(F)C(F)(F)F)cccn12 [Compound P39, N-[5-ethylsulfonyl-6-[8-(2,2,3,3,3-penta-fluoropropoxy)imidazo [1,5-a]pyridin-3-yl]-3-pyridyl]-N-methyl-acetamide]
≥ 80%: percent effect (mortality or growth inhibition) at 200 ppm [2] | percent effect (mortality or growth inhibition) at 200 ppm [3] | mortality at 200 ppm [4, 6]

CCS(=O)(=O)c1cc(C2(C#N)CC2)cnc1-c1ncc2c(OCC(F)(F)C(F)(F)F)nccn12 [Compound P15, 1-[5-ethylsulfonyl-6-[8-(2,2,3,3,3-penta-fluoropropoxy)imidazo [1,5-a]pyrazin-3-yl]-3-pyridyl]cyclopropane-carbonitrile]
≥ 80%: percent effect (mortality or growth inhibition) at 200 ppm [1] | percent effect (mortality or growth inhibition) at 200 ppm [2] | percent effect (mortality or growth inhibition) at 200 ppm [3] | mortality at 200 ppm [4, 6] | percent control (mortality, anti-feedant effect or growth inhibition) at 200 ppm [5, 7]

CCS(=O)(=O)c1cc(Br)cnc1-c1ncc2c(OCC(F)(F)C(F)(F)F)nccn12 [Compound P4, 3-(5-bromo-3-ethylsulfonyl-2-pyridyl)-8-(2,2,3,3,3-pentafluoropropoxy)imi-dazo[1,5-a]pyrazine]
≥ 80%: percent control (mortality or growth inhibition) at 200 ppm [1] | percent control (mortality or growth inhibition) at 200 ppm [3] | mortality at 200 ppm [4] | percent control (mortality, anti-feedant effect or growth inhibition) at 200 ppm [5]

CCS(=O)(=O)c1cc(C(C)(C)C#N)cnc1-c1ncc2c(OCC(F)(F)C(F)(F)F)nccn12 [Compound P16, 2-[5-ethylsulfonyl-6-[8-(2,2,3,3,3-penta-fluoropropoxy)imidazo [1,5-a]pyrazin-3-yl]-3-pyridyl]-2-methyl-propanenitrile]
≥ 80%: percent effect (mortality or growth inhibition) at 200 ppm [1] | percent effect (mortality or growth inhibition) at 200 ppm [3] | mortality at 200 ppm [4, 6] | percent control (mortality, anti-feedant effect or growth inhibition) at 200 ppm [5, 7]

CCS(=O)(=O)c1ccc(-c2ncccn2)nc1-c1ncc2c(OCC(F)(F)C(F)(F)F)nccn12 [Compound P25, 3-(3-ethylsulfonyl-6-pyrimidin-2-yl-2-pyridyl)-8-(2,2,3,3,3-penta-fluoropropoxy)imidazo [1,5-a]pyrazine]
≥ 80%: percent effect (mortality or growth inhibition) at 200 ppm [1] | percent effect (mortality or growth inhibition) at 200 ppm [2] | percent effect (mortality or growth inhibition) at 200 ppm [3] | mortality at 200 ppm [4, 6] | percent control (mortality, anti-feedant effect or growth inhibition) at 200 ppm [5, 7]
